US20130251783A1, “LIPOSOMES CONTAINING PERMEATION ENHANCERS FOR ORAL DRUG DELIVERY” (Universitat Heidelberg, priority 2011, published 2013)

Columns and labels:
Caco-2 cells [1] = settings: cited from earlier work
rats [2] = settings: rats fed daily around 37.7 mg/kg for two years; cited from earlier work
rats [3] = settings: cited from earlier work
rabbits = settings: cited from earlier work
Caco-2 cells [4] = experiment: Alamar Blue cytotoxicity assay; type: cell-based
Experimental: (§1) Caco-2 cells were grown in T-75 flasks in Dulbecco's modified Eagle's medium (DMEM) supplemented with 10% FBS, 1% non-essential amino acids, 1% pyruvate, 1% L-glutamine, 100 U/ml penicillin and 100 μg/ml streptomycin at 37° C. in an atmosphere with 5% CO2 and in equilibrium with distilled water. The medium was changed every other day, and the cells were subcultured at 80% confluency. Cells were used in the experiments described below.
(§2) Cytotoxicity of liposomes and bio-enhancer solutions was investigated using the Alamar Blue® assay (AbD Serotec, Oxford, UK) and by determination of the release of lactate dehydrogenase (LDH) with a test kit (Sigma-Aldrich, Taufkirchen, Germany). […] The formed NADH in turn reduces a tetrazolium salt to a red-coloured product which can be determined photometrically. […]
In terms of the Alamar Blue® assay, groups of eight wells were incubated with the solutions of the bio-enhancers in five concentrations (1 μM, 10 μM, 100 μM, 1 mM and 10 mM) and the liposomal formulations in three concentrations (0.5 mM, 5 mM and 50 mM total lipid) in KRB for 2, 4, and 8 h at 37° C. […] After 4 h at 37° C., the colour change of the dye was determined at an excitation wavelength of 530 nm and an emission wavelength of 590 nm in a Fluoroskan Ascent® plate reader. […] Cell viability was expressed as follows: […]

Caco-2 cells [5] = experiment: LDH release cytotoxicity assay; type: cell-based; settings: free solution, all concentrations (likely inhibition of the enzymatic reaction)
Experimental: as §1, §2
For the LDH release assay, cells were treated similar as described for the Alamar Blue® cytotoxicity assay with little changes. […] The reaction was stopped by the addition of 10 μl 1N HCl and subsequently, the colour change of the dye was measured by a Tecan microplate absorbance reader (Sunrise, Tecan, Grodig, Austria) at a wavelength of 490 nm and a reference wavelength of 700 nm. To eliminate the influence of the liposomes and the bio-enhancers on the absorbance, a blank was measured of the formulations with a concentration equal to the final assay concentration. […]

Structure (SMILES): C[C@H](CCC(=O)N(C)CC(=O)O)[C@H]1CC[C@H]2[C@@H]3[C@H](O)C[C@@H]4C[C@H](O)CC[C@]4(C)[C@H]3C[C@H](O)[C@]12C [CS, cholylsarcosine]
- Cytotoxicity in WST-1 transformation assay (Caco-2 cells [1]): no cytotoxicity

Structure (SMILES): CCCCCCCCCCCCCCCCCCN [SA, stearylamine]
- Side effects (rats [2]): without causing any side effects

Structure (SMILES): CCCCCCCCCCCCCCCC[n+]1ccccc1 [CpCl, cetylpyridinium chloride]
- LD50 (rats [3]): 200 mg/kg
- LD50 (rabbits): 400 mg/kg
- Toxicity compared among the investigated enhancers (Caco-2 cells [4]; Caco-2 cells): most toxic
- Cytotoxicity (cell viability) (Caco-2 cells [4]; free enhancer in KRB, concentration 1 mM): strong cytotoxicity
- LDH release compared to incubation with KRB (Caco-2 cells [5]): lower as the release after incubation with KRB
